These results are taken from patent US20230382923A1, “FUSED TETRACYCLIC QUINAZOLINE DERIVATIVES AS INHIBITORS OF ERBB2” (EnLiven Therapeutics, Inc., priority 2021, published 2023).

The term IC50 denotes the concentration that inhibits the measured activity by half.

A value given as a limit tells only on which side of the number the result lay.

For experiment [1], the target named is phosphorylated EGFR (pEGFR) (Homo sapiens (Human), UniProt P00533). Nature of the experiment: Detection of phosphorylated EGFR (pEGFR) by AlphaLISA in A431 cells. Format: cell-based. As to conditions: A431 cells (10% FBS), 4 hours incubation, EGF 30 ng/mL for 10 minutes. On the procedure:
[…] were performed to measure phosphorylated EGFR levels using A431 cells (10% FBS). A431 (1.0*10^4cells/40 μl/well) cells were seeded in 384 well. Compounds were dissolved in DMSO, serially diluted in DMSO and then were added, mixed, and incubated for 4 hours at 37° C., […]. Following the 4-hours incubation, cells were stimulated for 10 minutes with EGF (Invitrogen, cat #PHG0311) at a final concentration of 30 ng/mL in the incubator. The media was aspirated and cells were lysed in 10 μL lysis buffer with protease and phosphatase inhibitors (PerkinElmer, cat #ALSU-PEGFR-A50K). The plates were placed on a shaker for 5 minutes and then incubated for 30 min at 4° C. for complete lysis. The lysate was transferred to an Optiplate (Perkin Elmer, cat #6007290).
Acceptor mix (PerkinElmer, cat #ALSU-PEGFR-A50K) was prepared just before use and 5 μL was dispensed to all the wells, followed by a 1.5-2 h incubation at room temperature in dark. The donor mix (PerkinElmer, cat #ALSU-PEGFR-A50K) was prepared under low light conditions prior to use and 5 μl of donor mix was added to all the wells under subdued lighting or green filters. The plates were placed on a shaker for 5 min, sealed, and incubated overnight at room temperature in dark. Plates were read on the Envision (PerkinElmer) using standard AlphaLISA settings.
The percentage of inhibition on EGFR phosphorylation was calculated following equation: % Inhibition=100×(LumHC−LumSample)/(LumHC−LumLC). The low and high controls (LC/HC) are generated from lysate from wells with cells treated with DMSO or […] Staurosporine (BioAustralis, cat #BIA-S1086), […]. IC50 values were calculated by fitting the Curve using XLfit (v5.3.1.3), equation 201: Y=Bottom+(Top−Bottom)/(1+10^((LogIC50−X)*HillSlope)).
On the technique in general: Bead proximity is the source of the signal in Alpha formats.

Experiment [2] has as its target phosphorylated ERBB2 (pERBB2) (Homo sapiens (Human), UniProt P04626). Nature of the experiment: Detection of phosphorylated ERBB2 (pERBB2) by ELISA in BT-474 cells. Format: cell-based. As to conditions: four hours incubation with compound. The method, then: BT-474 cells were seeded into a 96-well at 2.0*10^4cells/100 μl/well. Compounds were dissolved and serially diluted in DMSO. The compounds were then were added, mixed, and incubated for four hours at 37° C., 5% CO2. […] Following the four hour incubation with compounds, cell lysates were prepared. Plates were centrifuged for 5 min at 3000 RPM, and supernatant was removed from each well. Cells were washed 3 times by resuspension in 150 μl PBS, followed by centrifugation and removal of the supernatant, as above. 100 μl of cell lysis buffer (Boston BioProducts, cat #BP-115D) supplied with 1×complete ULTRA cocktail inhibitor (Thermo ScientificTM, cat #78443) was then added to the washed cells. Cells were incubated with lysis buffer for 1 hour at 4° C., and then stored at -80° C. Enzyme-linked immunosorbent assays (ELISA) were performed to measure phosphorylated ERBB2 levels. […] The next day, plates were washed with PBS+0.05% Tween20 (PBST). 150 μl of 5% BSA blocking solution was added for 1 hour at room temperature, with shaking. Plates were washed with PBST. Cell lysates were thawed and 100 μl of lysate was added to the ELISA plate. The plates were incubated for 2 hours at room temperature, with shaking. ELISA plates were then washed with PBST and 100 μl of an HRP-labeled detection antibody that binds phosphorylated tyrosine (R&D Systems, cat #841913) was added to each well. Plates were incubated for 1 hour at room temperature, with shaking. Plates were then washed with PBST, and 100 μl TMB substrate solution (R&D Systems, cat #DY999) was added. Plate were incubated in the dark for 20 minutes at room temperature. 50 μl of Stop solution (R&D Systems, cat #DY994) (50 μl) was added to each well and mixed. […] The remaining kinase activity by calculated using the following formula: % Relative activity=100×([…]). The low and high control values (“LC” and “HC”) were generated from lysate from wells without cells or with cells treated with 0.1% DMSO, respectively.
For orientation: In an ELISA, binding on a coated surface is turned into a signal by an enzyme label.

Sequence of phosphorylated EGFR (pEGFR) (P00533 25-1210): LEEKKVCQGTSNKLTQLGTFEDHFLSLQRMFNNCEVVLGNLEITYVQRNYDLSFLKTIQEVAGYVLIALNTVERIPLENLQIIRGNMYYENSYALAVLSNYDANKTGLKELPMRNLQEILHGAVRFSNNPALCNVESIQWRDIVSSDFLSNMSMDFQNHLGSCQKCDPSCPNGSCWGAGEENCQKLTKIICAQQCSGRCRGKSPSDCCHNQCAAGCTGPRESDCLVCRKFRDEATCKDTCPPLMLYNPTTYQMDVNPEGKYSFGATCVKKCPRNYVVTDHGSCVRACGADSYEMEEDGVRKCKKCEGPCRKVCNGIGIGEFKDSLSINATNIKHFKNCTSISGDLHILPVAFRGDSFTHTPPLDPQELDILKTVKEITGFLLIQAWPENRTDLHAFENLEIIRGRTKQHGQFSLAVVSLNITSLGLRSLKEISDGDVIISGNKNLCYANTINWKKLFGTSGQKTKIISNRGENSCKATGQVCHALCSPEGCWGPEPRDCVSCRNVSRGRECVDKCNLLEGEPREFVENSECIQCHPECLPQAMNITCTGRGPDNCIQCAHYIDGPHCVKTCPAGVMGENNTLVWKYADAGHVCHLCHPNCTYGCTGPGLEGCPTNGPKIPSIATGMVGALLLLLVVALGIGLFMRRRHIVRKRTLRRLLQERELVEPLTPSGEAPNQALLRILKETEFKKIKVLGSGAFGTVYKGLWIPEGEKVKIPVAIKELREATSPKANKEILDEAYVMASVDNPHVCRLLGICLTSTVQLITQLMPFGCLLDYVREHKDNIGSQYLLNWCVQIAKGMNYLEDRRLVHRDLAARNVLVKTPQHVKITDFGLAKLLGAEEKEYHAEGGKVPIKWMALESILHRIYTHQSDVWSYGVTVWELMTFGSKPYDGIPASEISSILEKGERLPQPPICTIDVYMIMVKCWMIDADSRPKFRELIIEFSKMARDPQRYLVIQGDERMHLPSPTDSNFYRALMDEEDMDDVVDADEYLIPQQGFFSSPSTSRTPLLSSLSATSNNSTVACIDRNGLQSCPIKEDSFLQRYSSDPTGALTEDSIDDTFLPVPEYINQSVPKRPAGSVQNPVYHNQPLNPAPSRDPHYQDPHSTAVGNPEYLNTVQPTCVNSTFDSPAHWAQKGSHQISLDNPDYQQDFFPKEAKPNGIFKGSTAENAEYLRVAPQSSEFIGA
Sequence of phosphorylated ERBB2 (pERBB2) (P04626 23-1255): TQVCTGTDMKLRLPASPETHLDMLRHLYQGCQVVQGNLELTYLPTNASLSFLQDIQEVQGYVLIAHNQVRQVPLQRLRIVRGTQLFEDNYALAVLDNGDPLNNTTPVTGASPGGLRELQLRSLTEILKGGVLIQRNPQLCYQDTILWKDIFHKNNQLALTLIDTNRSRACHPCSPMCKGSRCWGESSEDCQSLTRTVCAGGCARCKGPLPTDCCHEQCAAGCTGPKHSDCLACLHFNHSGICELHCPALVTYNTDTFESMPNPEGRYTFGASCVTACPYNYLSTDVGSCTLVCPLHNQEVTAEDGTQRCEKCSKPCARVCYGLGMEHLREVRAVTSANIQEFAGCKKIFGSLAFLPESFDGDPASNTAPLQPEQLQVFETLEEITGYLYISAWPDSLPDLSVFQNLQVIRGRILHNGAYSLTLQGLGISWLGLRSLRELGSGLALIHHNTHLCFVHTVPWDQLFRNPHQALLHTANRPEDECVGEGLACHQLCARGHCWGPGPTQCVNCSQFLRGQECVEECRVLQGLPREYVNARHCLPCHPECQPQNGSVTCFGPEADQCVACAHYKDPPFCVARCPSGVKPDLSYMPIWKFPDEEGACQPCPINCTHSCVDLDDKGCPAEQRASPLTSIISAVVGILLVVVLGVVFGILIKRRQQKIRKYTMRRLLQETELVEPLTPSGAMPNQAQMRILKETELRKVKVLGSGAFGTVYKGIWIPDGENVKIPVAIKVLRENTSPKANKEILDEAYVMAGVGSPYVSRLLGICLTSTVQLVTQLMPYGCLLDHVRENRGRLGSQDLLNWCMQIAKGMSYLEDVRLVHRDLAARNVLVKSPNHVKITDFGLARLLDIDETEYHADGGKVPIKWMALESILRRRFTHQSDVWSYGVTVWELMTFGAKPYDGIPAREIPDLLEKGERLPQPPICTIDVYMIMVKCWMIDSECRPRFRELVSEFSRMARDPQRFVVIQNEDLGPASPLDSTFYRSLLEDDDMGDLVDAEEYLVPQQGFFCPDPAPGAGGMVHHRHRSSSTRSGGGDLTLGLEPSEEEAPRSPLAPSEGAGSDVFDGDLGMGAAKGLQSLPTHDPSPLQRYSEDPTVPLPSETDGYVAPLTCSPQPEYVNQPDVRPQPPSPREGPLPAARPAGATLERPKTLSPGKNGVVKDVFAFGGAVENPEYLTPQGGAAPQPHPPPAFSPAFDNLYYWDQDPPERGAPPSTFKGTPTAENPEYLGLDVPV

As to `Cc1cc(Nc2ncnc3cc4c(nc23)N2CCN(C(=O)/C=C/CN(C)C)C(CO4)C2)ccc1Oc1cncc(F)c1` (stereo in doubt) [Compound 51, (E)-4-(dimethylamino)-1-((10S)-4-((4-((5-fluoropyridin-3-yl)oxy)-3-methylphenyl)amino)-7,8,10,11-tetrahydro-9H-6,10-methanopyrimido[4′,5′:5,6]pyrido[3,2-b][1,4,7]oxadiazonin-9-yl)but-2-en-1-one], the IC50 in experiment [1] came to 177 nM; in experiment [2], 8.84 nM.

With `Cc1cc(Nc2ncnc3cc4c(nc23)N2CCN(C(=O)/C=C/CN(C)C)C(CO4)C2)ccc1Oc1ccn2ncnc2c1` (stereo in doubt) [Compound 15, (E)-1-((10R)-4-((4-([1,2,4]triazolo[1,5-a]pyridin-7-yloxy)-3-methylphenyl)amino)-7,8,10,11-tetrahydro-9H-6,10-methanopyrimido[4′,5′:5,6]pyrido[3,2-b][1,4,7]oxadiazonin-9-yl)-4-(dimethylamino)but-2-en-1-one], the IC50 in experiment [1] is > 10000 nM; in experiment [2], 343 nM.

For the molecule `CN(C)C/C=C/C(=O)N1CCN2CC1COc1cc3ncnc(Nc4ccc(Oc5ccn6ncnc6c5)c(Cl)c4)c3nc12` (stereo in doubt) [Compound 32, (E)-1-((10S)-4-((4-([1,2,4]triazolo[1,5-a]pyridin-7-yloxy)-3-chlorophenyl)amino)-7,8,10,11-tetrahydro-9H-6,10-methanopyrimido[4′,5′:5,6]pyrido[3,2-b][1,4,7]oxadiazonin-9-yl)-4-(dimethylamino)but-2-en-1-one], the figures for the IC50 in experiment [1] and in experiment [2] were 920 nM and 8.41 nM, respectively.

Regarding `[2H]C([2H])(/C=C/C(=O)N1CCN2CC1COc1cc3ncnc(Nc4cc(C)c(Oc5ccn6ncnc6c5)cc4F)c3nc12)N(C)C` (stereo in doubt) [Compound 58, (E)-1-((10S)-4-((4-([1,2,4]triazolo[1,5-a]pyridin-7-yloxy)-2-fluoro-5-methylphenyl)amino)-7,8,10,11-tetrahydro-9H-6,10-methanopyrimido[4′,5′:5,6]pyrido[3,2-b][1,4,7]oxadiazonin-9-yl)-4-(dimethylamino)but-2-en-1-one-4,4-d2], the results for the IC50 in experiment [1] and in experiment [2] were 869 nM and 5.5 nM, respectively.

Consider `C=C(F)C(=O)N1CCN2CC1COc1cc3ncnc(Nc4ccc(Oc5ccn6ncnc6c5)c(C)c4)c3nc12` (stereo in doubt) [Compound 23, 1-((10S)-4-((4-([1,2,4]triazolo[1,5-a]pyridin-7-yloxy)-3-methylphenyl)amino)-7,8,10,11-tetrahydro-9H-6,10-methanopyrimido[4′,5′:5,6]pyrido[3,2-b][1,4,7]oxadiazonin-9-yl)-2-fluoroprop-2-en-1-one], for which the results for the IC50 in experiment [1] and in experiment [2] were > 10000 nM and 209 nM, respectively.

Consider `Cc1cc(Nc2ncnc3cc4c(nc23)N2CCN(C(=O)/C=C/CN(C)C)C(CO4)C2)c(F)cc1Oc1cncc(F)c1` (stereo in doubt) [Compound 44, (E)-4-(dimethylamino)-1-((10S)-4-((2-fluoro-4-((5-fluoropyridin-3-yl)oxy)-5-methylphenyl)amino)-7,8,10,11-tetrahydro-9H-6,10-methanopyrimido[4′,5′:5,6]pyrido[3,2-b][1,4,7]oxadiazonin-9-yl)but-2-en-1-one], for which the IC50 turned out to be 337 nM in experiment [1] and 36 nM in experiment [2].

As for `Cc1cc(Nc2ncnc3cc4c(nc23)N2CCN(C(=O)/C=C/CN(C)C)C(CO4)C2)ccc1Oc1ccc2c(c1)ncn2C` (stereo in doubt) [Compound 6, (E)-4-(dimethylamino)-1-((10S)-4-((3-methyl-4-((1-methyl-1H-benzo[d]imidazol-5-yl)oxy)phenyl)amino)-7,8,10,11-tetrahydro-9H-6,10-methanopyrimido[4′,5′:5,6]pyrido[3,2-b][1,4,7]oxadiazonin-9-yl)but-2-en-1-one], the IC50 was 2190 nM in experiment [1] and 34.2 nM in experiment [2].

As to `Cc1cc(Nc2ncnc3cc4c(nc23)N2CCN(C(=O)/C=C/C3CN(C)C3)C(CO4)C2)ccc1Oc1ccn2ncnc2c1` (stereo in doubt) [Compound 45, (E)-1-((10S)-4-((4-([1,2,4]triazolo[1,5-a]pyridin-7-yloxy)-3-methylphenyl)amino)-7,8,10,11-tetrahydro-9H-6,10-methanopyrimido[4′,5′:5,6]pyrido[3,2-b][1,4,7]oxadiazonin-9-yl)-3-(1-methylazetidin-3-yl)prop-2-en-1-one], the results for the IC50 in experiment [1] and in experiment [2] were > 10000 nM and 27.3 nM, respectively.

As to `Cc1ccc(Oc2ccc(Nc3ncnc4cc5c(nc34)N3CCN(C(=O)/C=C/CN(C)C)C(CO5)C3)cc2C)cn1` (stereo in doubt) [Compound 21, (E)-4-(dimethylamino)-1-((10S)-4-((3-methyl-4-((6-methylpyridin-3-yl)oxy)phenyl)amino)-7,8,10,11-tetrahydro-9H-6,10-methanopyrimido[4′,5′:5,6]pyrido[3,2-b][1,4,7]oxadiazonin-9-yl)but-2-en-1-one], the IC50 in experiment [1] worked out at 621 nM; in experiment [2], 25 nM.

`CN(C)C/C=C/C(=O)N1CCN2CC1COc1cc3ncnc(Nc4ccc(Oc5ccn6ncnc6c5)c(F)c4)c3nc12` (stereo in doubt) [Compound 39, (E)-1-((10S)-4-((4-([1,2,4]triazolo[1,5-a]pyridin-7-yloxy)-3-fluorophenyl)amino)-7,8,10,11-tetrahydro-9H-6,10-methanopyrimido[4′,5′:5,6]pyrido[3,2-b][1,4,7]oxadiazonin-9-yl)-4-(dimethylamino)but-2-en-1-one]: the IC50 is 6170 nM in experiment [1] and 8.92 nM in experiment [2].

As to `CC#CC(=O)N1CCN2CC1COc1cc3ncnc(Nc4ccc(Oc5ccc6c(c5)ncn6C)c(C)c4)c3cc12` (stereo in doubt) [Compound 11, 1-((10S)-4-((3-methyl-4-((1-methyl-1H-benzo[d]imidazol-5-yl)oxy)phenyl)amino)-7,8,10,11-tetrahydro-9H-6,10-methano[1,4,7]oxadiazonino[3,2-g]quinazolin-9-yl)but-2-yn-1-one], the IC50 was > 10000 nM in experiment [1] and 103 nM in experiment [2].

Turning to `Cc1cc(Nc2ncnc3cc4c(nc23)N2CCN(C(=O)/C=C/[C@H](C)N(C)C)C(CO4)C2)c(F)cc1Oc1ccn2ncnc2c1` (stereo in doubt) [Compound 47, (4S,E)-1-((10S)-4-((4-([1,2,4]triazolo[1,5-a]pyridin-7-yloxy)-2-fluoro-5-methylphenyl)amino)-7,8,10,11-tetrahydro-9H-6,10-methanopyrimido[4′,5′:5,6]pyrido[3,2-b][1,4,7]oxadiazonin-9-yl)-4-(dimethylamino)pent-2-en-1-one], the results for the IC50 in experiment [1] and in experiment [2] were > 10000 nM and 29.2 nM, respectively.

As for `CC#CC(=O)N1CCN2CC1COc1cc3ncnc(Nc4ccc(Oc5ccn6ncnc6c5)c(C)c4)c3cc12` (stereo in doubt) [Compound 12, 1-((10S)-4-((4-([1,2,4]triazolo[1,5-a]pyridin-7-yloxy)-3-methylphenyl)amino)-7,8,10,11-tetrahydro-9H-6,10-methano[1,4,7]oxadiazonino[3,2-g]quinazolin-9-yl)but-2-yn-1-one], the IC50 in experiment [1] was found to be 7060 nM; in experiment [2], 42.8 nM.
